Experiments:
[1] = molecular target: SREBP-2 (Homo sapiens (Human), UniProt Q12772); assay: In vitro assay SREBP-2: PathHunter U2OS SREBP-2 Nuclear Translocation Cell Line, U18666A-stimulated; type: cell-based; conditions: PathHunter U2OS SREBP-2 nuclear translocation cells, U18666A 10 μM, overnight (16 hours)
[2] = molecular target: LXRβ (Homo sapiens (Human), UniProt P55055); assay: In vitro assay LXRβ: PathHunter NHR CHO cells, LXRβ / Steroid Receptor Co-activator Peptide enzyme fragment complementation; type: cell-based; conditions: PathHunter NHR CHO cells, full-length human LXRβ and SRCP, chemiluminescent signal; read-out: LXRβ PPI
Summary of the method: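 Co-activator recruitment measured by chemiluminescence after signal generation. The CHO line carries full-length human LXRβ tagged with ProLink and an SRCP–enzyme acceptor fusion in the nucleus; cells sat overnight at 37° C before testing, in charcoal-dextran filtered serum medium with 1% final vehicle.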

LXRβ, sequence (P55055 whole entry, the tested form may be a part): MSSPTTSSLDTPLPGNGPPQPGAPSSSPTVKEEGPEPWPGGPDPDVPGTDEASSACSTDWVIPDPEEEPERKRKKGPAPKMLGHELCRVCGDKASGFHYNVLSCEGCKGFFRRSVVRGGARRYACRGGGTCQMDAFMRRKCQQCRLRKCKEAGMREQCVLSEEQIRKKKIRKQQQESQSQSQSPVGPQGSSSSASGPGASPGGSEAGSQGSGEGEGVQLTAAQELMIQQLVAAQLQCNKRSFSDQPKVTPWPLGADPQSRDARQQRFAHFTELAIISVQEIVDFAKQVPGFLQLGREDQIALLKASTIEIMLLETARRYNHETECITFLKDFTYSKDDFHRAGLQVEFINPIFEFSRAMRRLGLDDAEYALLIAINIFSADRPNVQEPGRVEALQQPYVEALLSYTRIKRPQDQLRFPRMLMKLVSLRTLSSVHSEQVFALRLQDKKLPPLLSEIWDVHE

SMILES	IC50 [1] [µM]	EC50 [2] [µM]
COc1cncc(N2CCN(C(=O)CC[C@@H](C)[C@H]3CC[C@H]4[C@@H]5CC=C6C[C@@H](O)CC[C@]6(C)[C@H]5CC[C@]34C)CC2)n1 [Example 662, (R)-4-((3S,8S,9S,10R,13R,14S,17R)-3-hydroxy-10,13-dimethyl-2,3,4,7,8,9,10,11,12,13,14,15,16,17-tetradecahydro-1H-cyclopenta[a]phenanthren-17-yl)-1-(4-(6-methoxypyrazin-2-yl)piperazin-1-yl)pentan-1-one]	< 0.25	> 10
CON(C(=O)CC[C@@H](C)[C@H]1CC[C@H]2[C@@H]3CC=C4C[C@@H](O)CC[C@]4(C)[C@H]3CC[C@]12C)[C@@H](C)CO [Example 72, (R)-4-((3S,8S,9S,10R,13R,14S,17R)-3-hydroxy-10,13-dimethyl-2,3,4,7,8,9,10,11,12,13,14,15,16,17-tetradecahydro-1H-cyclopenta[a]phenanthren-17-yl)-N—((S)-1-hydroxypropan-2-yl)-N-methoxypentanamide]	0.25 to 1	0.25 to 1
C[C@H](COc1ncccc1CO)[C@H]1CC[C@H]2[C@@H]3CC=C4C[C@@H](O)CC[C@]4(C)[C@H]3CC[C@]12C [Example 257, (3S,8S,9S,10R,13S,14S,17R)-17-((S)-1-((3-(hydroxymethyl)pyridin-2-yl)oxy)propan-2-yl)-10,13-dimethyl-2,3,4,7,8,9,10,11,12,13,14,15,16,17-tetradecahydro-1H-cyclopenta[a]phenanthren-3-ol]	< 0.25	> 10
CC1CCN(C(=O)CC[C@@H](C)[C@H]2CC[C@H]3[C@@H]4C[C@@H](O)[C@H]5C[C@@H](O)CC[C@]5(C)[C@H]4CC[C@]23C)CC1 [Example C2, (R)-4-((3S,5S,6R,8S,9S,10R,13R,14S,17R)-3,6-dihydroxy-10,13-dimethylhexadecahydro-1H-cyclopenta[a]phenanthren-17-yl)-1-(4-methylpiperidin-1-yl)pentan-1-one]	> 10	> 10
C[C@H](CCC(=O)N1CCN(c2ncnn2C)CC1)[C@H]1CC[C@H]2[C@@H]3CC=C4C[C@@H](O)CC[C@]4(C)[C@H]3CC[C@]12C [Example 605, (R)-4-((3S,8S,9S,10R,13R,14S,17R)-3-hydroxy-10,13-dimethyl-2,3,4,7,8,9,10,11,12,13,14,15,16,17-tetradecahydro-1H-cyclopenta[a]phenanthren-17-yl)-1-(4-(1-methyl-1H-1,2,4-triazol-5-yl)piperazin-1-yl)pentan-1-one]	< 0.25	> 10
C[C@H](CCC(=O)N1CCN(C(=O)c2cn(C)nn2)CC1)[C@H]1CC[C@H]2[C@@H]3CC=C4C[C@@H](O)CC[C@]4(C)[C@H]3CC[C@]12C [Example 308, (R)-4-((3S,8S,9S,10R,13R,14S,17R)-3-hydroxy-10,13-dimethyl-2,3,4,7,8,9,10,11,12,13,14,15,16,17-tetradecahydro-1H-cyclopenta[a]phenanthren-17-yl)-1-(4-(1-methyl-1H-1,2,3-triazole-4-carbonyl)piperazin-1-yl)pentan-1-one]	< 0.25	> 10
C[C@H](CCc1ccccn1)[C@H]1CC[C@H]2[C@@H]3CC=C4C[C@@](C)(O)CC[C@]4(C)[C@H]3CC[C@]12C [Example 369, (3S,8S,9S,10R,13R,14S,17R)-3,10,13-trimethyl-17-((R)-4-(pyridin-2-yl)butan-2-yl)-2,3,4,7,8,9,10,11,12,13,14,15,16,17-tetradecahydro-1H-cyclopenta[a]phenanthren-3-ol]	0.25 to 1	1 to 10
C[C@H](CCC(=O)N1CCN(C(=O)C2CC2)[C@@H](C)C1)[C@H]1CC[C@H]2[C@@H]3CC=C4C[C@@H](O)CC[C@]4(C)[C@H]3CC[C@]12C [Example 650, (R)-1-((S)-4-(cyclopropanecarbonyl)-3-methylpiperazin-1-yl)-4-((3S,8S,9S,10R,13R,14S,17R)-3-hydroxy-10,13-dimethyl-2,3,4,7,8,9,10,11,12,13,14,15,16,17-tetradecahydro-1H-cyclopenta[a]phenanthren-17-yl)pentan-1-one]	< 0.25	> 10
CC(=O)N[C@@H]1CCN(C(=O)CC[C@@H](C)[C@H]2CC[C@H]3[C@@H]4CC=C5C[C@@H](O)CC[C@]5(C)[C@H]4CC[C@]23C)C1 [Example 324, N-[(3R)-1-[(4R)-4-[(1R,3aS,3bS,7S,9aR,9bS,11aR)-7-hydroxy-9a,11a-dimethyl-1H,2H,3H,3aH,3bH,4H,6H,7H,8H,9H,9aH,9bH,10H,11H,11aH-cyclopenta[a]phenanthren-1-yl]pentanoyl]pyrrolidin-3-yl]acetamide]	0.25 to 1	> 10
C[C@H](CCC(=O)N1CCC(C)(CNS(C)(=O)=O)CC1)[C@H]1CC[C@H]2[C@@H]3CC=C4C[C@@H](O)CC[C@]4(C)[C@H]3CC[C@]12C [Example 367, N-({1-[(4R)-4-[(1R,3aS,3bS,7S,9aR,9bS,11aR)-7-hydroxy-9a,11a-dimethyl-1H,2H,3H,3aH,3bH,4H,6H,7H,8H,9H,9aH,9bH,10H,11H,11aH-cyclopenta[a]phenanthren-1-yl]pentanoyl]-4-methylpiperidin-4-yl}methyl)methanesulfonamide]	< 0.25	> 10
C[C@H](CCC(=O)N1CC[C@H](Oc2ccncc2)[C@@H](C)C1)[C@H]1CC[C@H]2[C@@H]3CC=C4C[C@@H](O)CC[C@]4(C)[C@H]3CC[C@]12C [Example 571, (R)-4-((3S,8S,9S,10R,13R,14S,17R)-3-hydroxy-10,13-dimethyl-2,3,4,7,8,9,10,11,12,13,14,15,16,17-tetradecahydro-1H-cyclopenta[a]phenanthren-17-yl)-1-((3S,4S)-3-methyl-4-(pyridin-4-yloxy)piperidin-1-yl)pentan-1-one]	< 0.25	> 10
C[C@H](CCC(=O)N1CCN(c2ccnc(N(C)C)n2)CC1)[C@H]1CC[C@H]2[C@@H]3CC=C4C[C@@H](O)CC[C@]4(C)[C@H]3CC[C@]12C [Example 562, (R)-1-(4-(2-(dimethylamino)pyrimidin-4-yl)piperazin-1-yl)-4-((3S,8S,9S,10R,13R,14S,17R)-3-hydroxy-10,13-dimethyl-2,3,4,7,8,9,10,11,12,13,14,15,16,17-tetradecahydro-1H-cyclopenta[a]phenanthren-17-yl)pentan-1-one]	< 0.25	> 10
C[C@H](CCC(=O)N1CCC(C(O)(C(F)(F)F)C(F)(F)F)CC1)[C@H]1CC[C@H]2[C@@H]3CC=C4C[C@@H](O)CC[C@]4(C)[C@H]3CC[C@]12C [Example 99, (R)-1-(4-(1,1,1,3,3,3-hexafluoro-2-hydroxypropan-2-yl)piperidin-1-yl)-4-((3S,8S,9S,10R,13R,14S,17R)-3-hydroxy-10,13-dimethyl-2,3,4,7,8,9,10,11,12,13,14,15,16,17-tetradecahydro-1H-cyclopenta[a]phenanthren-17-yl)pentan-1-one]	< 0.25	> 10
C[C@H](CCC(=O)N1CCCOCC1)[C@H]1CC[C@H]2[C@@H]3CC=C4C[C@@H](O)CC[C@]4(C)[C@H]3CC[C@]12C [Example 81, (R)-4-((3S,8S,9S,10R,13R,14S,17R)-3-hydroxy-10,13-dimethyl-2,3,4,7,8,9,10,11,12,13,14,15,16,17-tetradecahydro-1H-cyclopenta[a]phenanthren-17-yl)-1-(1,4-oxazepan-4-yl)pentan-1-one]	< 0.25	0.25 to 1
